Data reported in patent US20110262464A1, “Compositions, Kits, and Methods for the Diagnosis, Prognosis, and Monitoring of Cancer Using GOLPH3” (DANAFARBER CANCER INSTITUTE, INC., priority 2008, published 2011).

Key:
[1] = tested on: WM239A melanoma xenograft tumors; assay: In vivo rapamycin treatment of xenograft tumors; set-up: species or system mouse; settings: WM239A-GOLPH3 tumors; rapamycin 6.0 mg/kg i.p. every other day; day 8, post 4 doses
Method: (§1) For in vivo rapamycin studies, melanoma 1205LU and WM239A cells verified to stably-express empty vector or GOLPH3 were subcutaneously implanted into female nude animals (Taconic) at 5.0×10^5 cells/site on both flanks. Tumors were allowed to reach approximately 100 mm^3, after which time animals were randomized into separate cohorts for treatment with vehicle [5% (vol/vol) PEG400.5% (vol/vol) Tween-80) or rapamycin (6 mg/kg; LC Laboratories; 50 mg/ml stock prepared in 100% ETOH and diluted fresh in vehicle solvent for treatment) by intraperitoneal injection every other day. Tumor volumes and body weights were measured upon drug administration. Tumor volume was determined by measuring in two directions with vernier calipers and formulated as tumor volume=[…]. Growth curves were plotted as mean change in tumor volume for each group, where mean change indicates change in tumor volume at a given time point minus tumor volume at time of initial dose administration. Endpoint scatter plots were plotted as proportion of final dose endpoint tumor volume over respective tumor baseline starting volume. Percent tumor growth inhibition was determined as (1-(T/N))×100, where T is the mean change in tumor volume of the treated group and N is the mean change in tumor volume of the control group at the assay endpoint. Two-tailed t-test calculations were performed using Prism 4 (Graphpad).

[2] = tested on: 1205LU melanoma xenograft tumors; assay: In vivo rapamycin treatment of xenograft tumors; set-up: species or system mouse; settings: 1205LU-GOLPH3 tumors; rapamycin 6.0 mg/kg i.p. every other day; day 8, post 4 doses
Method: as §1

CO[C@H]1C[C@@H]2CC[C@@H](C)[C@@](O)(O2)C(=O)C(=O)N2CCCC[C@H]2C(=O)O[C@H]([C@H](C)C[C@@H]2CC[C@@H](O)[C@H](OC)C2)CC(=O)[C@H](C)/C=C(\C)[C@@H](O)[C@@H](OC)C(=O)[C@H](C)C[C@H](C)/C=C/C=C/C=C/1C [rapamycin]
percent tumor growth inhibition (% TGI) [1]: 80.9% | percent tumor growth inhibition (% TGI) [2]: 81.9%
